The target in test [1] is T1, human FLT3 protein (FLT3 (WT)) (Homo sapiens, UniProt P36888).
T1 construct: human FLT3 protein (intracellular region, 564 to 993 aa); GST; purchased Carna Biosciences; host or cells: baculovirus expression system
T1 sequence (P36888 564-993): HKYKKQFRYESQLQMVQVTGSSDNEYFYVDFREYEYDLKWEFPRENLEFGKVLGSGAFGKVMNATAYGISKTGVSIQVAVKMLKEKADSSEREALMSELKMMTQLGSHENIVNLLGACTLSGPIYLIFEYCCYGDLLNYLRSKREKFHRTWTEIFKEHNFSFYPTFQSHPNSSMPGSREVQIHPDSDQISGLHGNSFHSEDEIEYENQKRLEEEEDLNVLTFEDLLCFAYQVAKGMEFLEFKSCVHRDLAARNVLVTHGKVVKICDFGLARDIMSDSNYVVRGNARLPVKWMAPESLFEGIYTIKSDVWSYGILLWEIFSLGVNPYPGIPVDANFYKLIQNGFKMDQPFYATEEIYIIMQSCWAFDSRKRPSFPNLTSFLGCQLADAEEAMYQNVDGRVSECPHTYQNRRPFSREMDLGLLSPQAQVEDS
The test is described as follows: FLT3 inhibition test (FLT3 enzyme inhibition, time-resolved fluorescence of substrate peptide phosphorylation). It counts as biochemical. Conditions: GST-fused human FLT3 (564 to 993 aa), ATP 50 μM; read-out: FLT3 (WT) enzyme inhibition activity. A digest of the protocol:
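Substrate peptide phosphorylation detected by time-resolved fluorescence after a 30 min kinase reaction at 25° C with 50 μM ATP (final). Beforehand, compound and FLT3 (WT, 1.2 μg) stood 15 min at 25° C in HEPES buffer pH 7.5 containing MgCl2, NaCl, BSA and DTT.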

The test system of a further test is MV4-11 cells. The test is described as follows: Leukemia cell proliferation inhibition test (ATPlite), MV4-11. The test is classed as cell-based. Conditions: Homo sapiens, MV4-11, 72 h, MV4-11, 72 hours culture, ATPlite; GI50 per method; read-out: MV4-11 cell proliferation inhibition effect. A digest of the protocol: (§1)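 Molm-13 or MV4-11 cells at 10,000 cells/well in RPMI with 10% FBS and pen/strep were exposed to serially diluted compound for 72 h at 37 °C, 5% CO2. Total cellular ATP was read by luciferase luminescence. GI50 was taken relative to 0.1% DMSO control, from duplicates by sigmoid non-linear regression.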

For another test, the system named is Molm-13 cells. The test is described as follows: Leukemia cell proliferation inhibition test (ATPlite), Molm-13. As to conditions: Homo sapiens, MOLM-13, 72 h, Molm-13, 72 hours culture, ATPlite; GI50 per method; read-out: MOLM13 cell proliferation inhibition effect. The test is classed as cell-based. A digest of the protocol: as §1
For orientation: Cellular ATP, detected with luciferase, serves as a proxy for viable cell number.

Each structure is given as a SMILES string. Bounds are passed on as bounds.

Regarding `C[C@@H](C(=O)NCCCC#Cc1cnc(Nc2ccnc(F)c2)nc1NC1CC1)N(C)C(=O)/C=C/CN(C)C` [Compound 9-15, (S,E)-N-(1-((5-(4-(Cyclopropylamino)-2-((2-fluoropyridin-4-yl)amino)pyrimidin-5-yl)-4-pentyn-1-yl)amino)-1-oxopropan-2-yl)-4-(dimethylamino)-N-methyl-2-butenamide], the IC50 (in test [1]; in the test on MV4-11 cells; with Molm-13 cells) was less than 10 nM in each case.

`C[C@@H](C(=O)NCCCC#Cc1cnc(Nc2ccc(C#N)cc2)nc1Nc1ccc(F)cc1)N(C)C(=O)/C=C/CN(C)C` [Compound 10-2, (S,E)-N-(1--((5-(2-((4-cyanophenyl)amino)-4-((4-fluorophenyl)amino)pyrimidin-5-yl)-4-pentyn-1-yl)amino)-1-oxopropan-2-yl)-4-(dimethylamino)-N-methyl-2-butenamide]: the IC50 (in test [1]; with MV4-11 cells; in the test on Molm-13 cells) was less than 10 nM throughout.

On to `CNc1nc(Nc2ccc3[nH]ncc3c2)ncc1C#CCCCNC(=O)[C@@H]1CCCN1C(=O)/C=C/CN(C)C` [Compound 10-66, (S,E)-N-(5-(2-((1H-Indazol-5-yl)amino)-4-(methylamino)pyrimidin-5-yl)-4-pentyn-1-yl)-1-(4-(dimethylamino)-2-butenoyl)pyrrolidine-2-carboxamide], for which the IC50 (in test [1]; with MV4-11 cells; in the test on Molm-13 cells) was less than 10 nM in each case.

In the case of `CCCNc1nc(Nc2ccc(C(N)=O)cc2)ncc1C(=O)Nc1cccc(NC2CCCN(C(=O)/C=C/CN(C)C)CC2)c1` (stereo not drawn) [Compound 3-21], the IC50 is less than 10 nM in test [1], 100 to 1000 nM in the test with MV4-11 cells and 100 to 1000 nM in the test with Molm-13 cells.

For `CCCNc1nc(Nc2cccc(F)c2)ncc1C#C[C@H]1CCCC(NC(=O)[C@H](C)N(C)C(=O)/C=C/CN(C)C)C1` (stereo in doubt) [Compound 13-2, (E)-4-(dimethylamino)-N—((S)-1-(((1R,3S)-3-((2-((3-fluorophenyl)amino)-4-(propylamino)pyrimidin-5-yl)ethynyl)cyclohexyl)amino)-1-oxopropan-2-yl)-N-methyl-2-butenamide], the IC50 in test [1] was less than 10 nM; with MV4-11 cells it was 10 to 100 nM; in the test with Molm-13 cells it was 10 to 100 nM.

In the case of `CCCNc1nc(Nc2ccc(C(N)=O)cc2)ncc1C#CCCCNC(CCOC)(CCOC)CNC(=O)/C=C/CN(C)C` [Compound 8-13], the IC50 in test [1] is less than 10 nM; in the test with MV4-11 cells it was 10 to 100 nM; with Molm-13 cells it was 10 to 100 nM.

For `CCCNc1nc(NCCc2ccncc2)ncc1C(=O)Nc1cccc(NC(=O)CNC(=O)/C=C/CN2CCN(C)CC2)c1` [Compound 2-14], the IC50 in test [1] was less than 10 nM; in the test with MV4-11 cells, 10 to 100 nM; in the test on Molm-13 cells it was 10 to 100 nM.

Consider `CC[C@@H](C(=O)NCCCC#Cc1cnc(Nc2ccc(F)cc2)nc1Nc1ccc(OC)nc1)N(C)C(=O)/C=C/CN(C)C` [Compound 10-39], for which the IC50 (in test [1]; in the test with MV4-11 cells; in the test on Molm-13 cells) was less than 10 nM in each case.

`CNc1nc(Nc2cccc(C#N)c2)ncc1C#CCCCNC(=O)[C@@H]1CCCN1C(=O)/C=C/CN(C)C` [Compound 7-76]: the IC50 (in test [1]; in the test on MV4-11 cells; in the test with Molm-13 cells) was less than 10 nM in each case.

With `CCCNc1nc(Nc2ccnc(OC)c2)ncc1C#C[C@H]1C[C@@H](NC(=O)[C@H](C)N(C)C(=O)/C=C/CN(C)C)C1` [Compound 14-6, (E)-4-(Dimethylamino)-N—((S)-1-(((1S,3R)-3-((2-((2-methoxypyridin-4-yl)amino)-4-(propylamino)pyrimidin-5-yl)ethynyl)cyclobutyl)amino)-1-oxopropan-2-yl)-N-methyl-2-butenamide], the IC50 (in test [1]; in the test with MV4-11 cells; in the test on Molm-13 cells) was less than 10 nM throughout.

With `CCCNc1cc(Nc2ccc(C#N)cc2)ncc1C#CCCCNC(=O)[C@H](C)N(C)C(=O)/C=C/CN(C)C` [Compound 18-1, (S,E)-N-(1-((5-(6-((4-cyanophenyl)amino)-4-(propylamino)pyridin-3-yl)-4-pentyn-1-yl)amino)-1-oxopropan-2-yl)-4-(dimethylamino)-N-methyl-2-butenamide], the IC50 in test [1] was less than 10 nM; with MV4-11 cells, 10 to 100 nM; in the test on Molm-13 cells, 10 to 100 nM.

`C=CC(=O)Nc1cccc(CNC(=O)c2cnc(NCCc3ccncc3)nc2NCCC)c1` [Compound 2-26]: the IC50 in test [1] is 10 to 100 nM; with MV4-11 cells, 100 to 1000 nM; with Molm-13 cells, 100 to 1000 nM.

As to `COCCCNc1nc(Nc2ccnc(F)c2)ncc1C#CCCCNC(=O)[C@H](C)N(C)C(=O)/C=C/CN(C)C` [Compound 9-16], the IC50 (in test [1]; in the test with MV4-11 cells; in the test with Molm-13 cells) was less than 10 nM each time.

For `CCCNc1cc(Nc2cccc(F)c2)ncc1C(=O)Nc1cccc(NC(=O)[C@H](C)N(C)C(=O)/C=C/CN(C)C)c1` [Compound 18-2, (S,E)-N-(3-(2-(4-(dimethylamino)-N-methyl-2-butenamido)propanamido)phenyl)-6-((3-fluorophenyl)amino)-4-(propylamino)nicotinamide], the IC50 is less than 10 nM in test [1], less than 10 nM in the test on MV4-11 cells and 10 to 100 nM in the test on Molm-13 cells.

The values above are taken from patent publication US9145415B2, “Nitrogen-containing heterocyclic compound or salt thereof” (FUJIFILM Corporation, priority 2012, dated 2015).
